Laboratory results taken from patent US20250320279A1, “UNGULATE-DERIVED POLYCLONAL IMMUNOGLOBULIN SPECIFIC FOR INFLUENZA VIRUS AND USES THEREOF” (priority 2021, published 2025).

Test system: oseltamivir-resistant influenza A/Hong Kong/2369/2009 (H1N1pdm) H275Y
Design: species or system BALB/c mice
Details: mouse, in vivo

CCOC(=O)C1=C[C@@H](OC(CC)CC)[C@H](NC(C)=O)[C@@H](N)C1 [oseltamivir]
protection from weight loss (mean body weights): did not protect mice from weight loss
